Data reported in patent US6506766B1 (Abbott Laboratories, priority 1998, dated 2003).
Read-outs that look alike come from different tables or passages of the source.

Key:
[1] = target: T1, human progesterone receptor-A [PRA] isoform (Homo sapiens, UniProt P06401); assay: Radioligand binding with human progesterone receptor cytosol ([3H]-progesterone competition); conditions: read-out: Ki (nM) PR
T1 construct: host or cells: insect SF21 cells (baculovirus)
T1 sequence (P06401 1-769 isoform P06401-2): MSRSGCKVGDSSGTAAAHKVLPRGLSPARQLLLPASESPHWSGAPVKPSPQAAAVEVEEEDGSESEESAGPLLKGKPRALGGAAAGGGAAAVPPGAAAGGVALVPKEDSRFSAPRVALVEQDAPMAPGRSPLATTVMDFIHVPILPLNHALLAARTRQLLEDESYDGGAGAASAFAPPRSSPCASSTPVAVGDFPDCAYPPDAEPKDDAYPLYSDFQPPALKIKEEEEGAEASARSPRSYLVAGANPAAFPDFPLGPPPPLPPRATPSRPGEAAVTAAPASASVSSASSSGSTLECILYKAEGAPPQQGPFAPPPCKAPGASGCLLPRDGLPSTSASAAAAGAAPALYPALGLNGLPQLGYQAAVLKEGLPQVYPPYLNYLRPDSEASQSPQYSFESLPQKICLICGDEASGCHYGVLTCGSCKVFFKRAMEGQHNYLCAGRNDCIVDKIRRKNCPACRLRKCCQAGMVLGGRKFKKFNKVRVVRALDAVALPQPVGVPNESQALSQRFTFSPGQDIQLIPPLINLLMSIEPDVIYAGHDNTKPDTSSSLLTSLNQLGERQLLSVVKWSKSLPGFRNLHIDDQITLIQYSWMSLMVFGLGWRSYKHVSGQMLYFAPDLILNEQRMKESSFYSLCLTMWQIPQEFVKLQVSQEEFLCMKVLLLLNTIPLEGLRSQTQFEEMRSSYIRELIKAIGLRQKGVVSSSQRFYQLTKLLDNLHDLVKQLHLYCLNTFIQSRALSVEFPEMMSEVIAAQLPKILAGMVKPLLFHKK

[2] = target: T2, human glucocorticoid receptor-α [GRX] isoform (Homo sapiens, UniProt P04150); assay: Radioligand binding with human glucocorticoid receptor cytosol ([3H]-dexamethasone competition); conditions: read-out: Ki (nM) GR
T2 construct: host or cells: insect SF21 cells (baculovirus)
T2 sequence (P04150 1-777): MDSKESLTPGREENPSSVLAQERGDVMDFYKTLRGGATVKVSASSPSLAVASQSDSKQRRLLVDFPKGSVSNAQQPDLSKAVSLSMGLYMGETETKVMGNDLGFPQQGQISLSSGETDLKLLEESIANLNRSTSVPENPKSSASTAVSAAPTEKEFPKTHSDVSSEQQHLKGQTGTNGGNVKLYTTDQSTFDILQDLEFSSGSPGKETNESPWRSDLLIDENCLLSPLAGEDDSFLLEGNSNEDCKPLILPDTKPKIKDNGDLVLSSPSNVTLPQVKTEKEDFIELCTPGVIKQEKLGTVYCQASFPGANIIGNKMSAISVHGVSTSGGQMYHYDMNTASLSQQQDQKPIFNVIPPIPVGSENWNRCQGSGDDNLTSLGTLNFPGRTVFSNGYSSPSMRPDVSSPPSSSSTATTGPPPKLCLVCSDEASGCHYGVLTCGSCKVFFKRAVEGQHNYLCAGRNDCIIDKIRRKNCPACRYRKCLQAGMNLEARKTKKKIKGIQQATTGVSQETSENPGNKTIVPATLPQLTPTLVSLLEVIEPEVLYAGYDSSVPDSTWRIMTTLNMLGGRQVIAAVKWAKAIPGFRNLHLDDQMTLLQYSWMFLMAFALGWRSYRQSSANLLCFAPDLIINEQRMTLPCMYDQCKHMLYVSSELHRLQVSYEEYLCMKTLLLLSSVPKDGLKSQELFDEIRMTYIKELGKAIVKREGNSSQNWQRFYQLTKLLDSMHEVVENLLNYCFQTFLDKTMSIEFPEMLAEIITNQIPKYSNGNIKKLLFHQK

[3] = PRA cytosol expressed in insect SF21 cells, [3H]Prog ~0.8 nM, 4° C. overnight, Ki by Cheng-Prusoff, KL ~4.5 nM
[4] = GRX cytosol expressed in insect SF21 cells, [3H]-Dex ~0.9 nM, 4° C. overnight, Ki by Cheng-Prusoff, KL ~[…]

| Ki [1, 3] [nM] | Ki [2, 4] [nM] | SMILES | Ki [1] [nM] | Ki [2] [nM] |
| --- | --- | --- | --- | --- |
| 97.9 | 2.3 | COc1c(O)ccc2c1-c1ccc3c(c1C(=Cc1ccccc1)O2)C(C)=CC(C)(C)N3 [Example 406, 9-Hydroxy-10-methoxy-5-(phenylmethylene)-2,2,4-trimethyl-1H-2,5-dihydro-[1]benzopyrano[3,4-f]quinoline] | – | – |
| 113 | 0.87 | COc1c(O)ccc2c1-c1ccc3c(c1[C@H]([C@@H]1C=CCCCC1)O2)C(C)=CC(C)(C)N3 [Example 246, (−)(5S,3′S)2,5-Dihydro-9-hydroxy-10-methoxy-2,2,4-trimethyl-5-(3-cycloheptenyl)-1H-[1]benzopyrano[3,4-f]quinoline] | – | – |
| 102 | 0.71 | C#CCC1Oc2ccc(O)c(OC)c2-c2ccc3c(c21)C(C)=CC(C)(C)N3 (stereo not drawn) [Example 266, 2,5-Dihydro-9-hydroxy-10-methoxy-5-(3-propynyl)-2,2,4-trimethyl-1H-[1]benzopyrano[3,4-f]quinoline] | – | – |
| 204 | 0.91 | C=CCC1Oc2ccc(OC(=O)CCNC(C)=O)c(OC)c2-c2ccc3c(c21)C(C)=CC(C)(C)N3 (racemic) [Example 428, (+/−)2,5-Dihydro-9-(3-acetamido-propanoyloxy)-10-methoxy-2,2,4-trimethyl-5-allyl-1H-[1]benzopyrano[3,4-f]quinoline] | – | – |
| 406 | 1.6 | COc1c(O)ccc2c1-c1ccc3c(c1C(c1ccsc1)O2)C(C)=CC(C)(C)N3 (stereo not drawn) [Example 444, 2,5-Dihydro-9-hydroxy-10-methoxy-2,2,4-trimethyl-5-(3-thienyl)-1H-[1]benzopyrano[3,4-f]quinoline] | – | – |
| 113 | 16 | C=CCC1Oc2c(Br)cc(Br)c(OC)c2-c2ccc3c(c21)C(C)=CC(C)(C)N3 (stereo not drawn) [Example 301, 7,9-Dibromo-10-methoxy-5-(3-propenyl)-2,2,4-trimethyl-1H-2,5-dihydro[1]benzopyrano[3,4-f]quinoline] | – | – |
| ≥ 10000 | 6.5 | COc1cccc2c1-c1ccc3c(c1C(c1cccc(CCOC(=O)N(C)C)c1)O2)C(C)=CC(C)(C)N3 (stereo not drawn) [Example 317, 2,5-Dihydro-10-methoxy-5-(3-(2-(N,N-dimethylaminocarbonyloxy)ethyl)phenyl)-2,2,4-trimethyl-1H-[1]benzopyrano[3,4-f]quinoline] | – | – |
| 3940 | 0.35 | COc1c(OC(=O)CCC(=O)N(C)C)ccc2c1-c1ccc3c(c1C(c1cccs1)O2)C(C)=CC(C)(C)N3 (stereo not drawn) [Example 425, 2,5-Dihydro-9-(4-N,N-dimethylamino-4-oxo-butanoyloxy)-10-methoxy-2,2,4-trimethyl-5-(2-thienyl)-1H-[1]benzopyrano[3,4-f]quinoline] | – | – |

Further lines, the compound ahead of its results:

| SMILES | Ki [1, 3] [nM] | Ki [2, 4] [nM] | Ki [1] [nM] | Ki [2] [nM] |
| --- | --- | --- | --- | --- |
| C=CCC1Oc2ccc(O)c(OC)c2-c2ccc3c(c21)C(C)=CC(C)(C)N3 (stereo not drawn) [Example 235, 10-Methoxy-9-hydroxy-5-(3-propenyl)-2,2,4-trimethyl-1H-2,5-dihydro-[1]benzopyrano[3,4-f]quinoline] | 155 | 0.94 | – | – |
| C=CCC1Oc2cccc(OC(F)F)c2-c2ccc3c(c21)C(C)=CC(C)(C)N3 (stereo not drawn) [Example 8, 10-(Difluoromethoxy)-2,5-dihydro-2,2,4-trimethyl-5-(2-propenyl)-1H-[1]benzopyrano[3,4-f]quinoline] | 6010 | 168 | – | – |
| COc1cccc2c1-c1ccc3c(c1[C@@H]([C@@H]1C=C(C)CCC1)O2)C(C)=CC(C)(C)N3 [Example 158] | ≥ 10000 | 48 | – | – |
| COc1c(O)ccc2c1-c1ccc3c(c1[C@H](C1(C)CC=CCC1)O2)C(C)=CC(C)(C)N3 (single isomer, unassigned; (-)) [Example 238] | 11.5 | 1.2 | – | – |
| CNC(=O)OCCC1Oc2cccc(OC)c2-c2ccc3c(c21)C(C)=CC(C)(C)N3 (stereo not drawn) [Example 203, 2,5-Dihydro-10-methoxy-5-(2-(N-methyaminocarbonyloxyoxy)ethyl)-2,2,4-trimethyl-1H-[1]benzopyrano[3,4-f]quinoline] | ≥ 10000 | 85 | – | – |
| COc1cccc2c1-c1ccc3c(c1C(c1cccc(Oc4ccc([N+](=O)[O-])cc4[N+](=O)[O-])c1)O2)C(C)=CC(C)(C)N3 (stereo not drawn) [Example 91, 5-[3-(2,4-Dinitrophenoxy)phenyl]-2,5-dihydro-10-methoxy-2,2,4-trimethyl-1H-[1]benzopyrano[3,4-f]quinoline] | ≥ 10000 | 17 | – | – |
| COCCNc1cc(C)cc(C2Oc3cccc(OC)c3-c3ccc4c(c32)C(C)=CC(C)(C)N4)c1 (stereo not drawn) [Example 116, 3-(2,5-Dihydro-10-methoxy-2,2,4-trimethyl-1H-[1]benzopyrano[3,4-f]quinolin-5-yl)-N-(2-methoxyethyl)-5-methylbenamine] | ≥ 10000 | 7.2 | – | – |
| COCC1=C[C@H]([C@@H]2Oc3ccc(O)c(OC)c3-c3ccc4c(c32)C(C)=CC(C)(C)N4)CCC1 (relative stereo) [Example 244, rel-(5S,3′R)-9-Hydroxy-5-[1-methoxymethyl-3-cyclohexenyl]-10-methoxy-2,2,4-trimethyl-2,5-dihydro-1H-[1]benzopyrano[3,4-f]quinoline] | 804 | 6.3 | – | – |
| COc1cccc2c1-c1ccc3c(c1[C@@H](C1CCCOC1=O)O2)C(C)=CC(C)(C)N3 (stereo in doubt) [Example 134, rel (5R,2′R) 2,5-Dihydro-10-methoxy-5-(2-oxo-3-tetrahydropyranyl)-2,2,4-trimethyl-1H[1]benzopyrano[3,4-f]quinoline] | ≥ 10000 | 238 | – | – |
| COc1cccc2c1-c1ccc3c(c1C(C1CCC=C(CO)C1)O2)C(C)=CC(C)(C)N3 (stereo not drawn) [Example 150, 2,5-Dihydro-10-methoxy-5-(3-hydroxymethyl-3-cyclohexenyl)-2,2,4-trimethyl-1H-[1]benzopyrano[3,4-f]quinoline] | ≥ 10000 | 106 | – | – |
| COc1cccc2c1-c1ccc3c(c1C(c1cc(C)cc(C(C)(C)O)c1)O2)C(C)=CC(C)(C)N3 (stereo not drawn) [Example 111, 3-(2,5-Dihydro-10-methoxy-2,2,4-trimethyl-1H-[1benzopyrano3,4-f]quinolin-5-yl)5-trimethylbenzenemethanol] | ≥ 10000 | 7.2 | – | – |
| COc1cccc2c1-c1ccc3c(c1C([C@H]1C=C(CSC)CCC1)O2)C(C)=CC(C)(C)N3 (stereo in doubt) [Example 161] | ≥ 10000 | 3.3 | – | – |
| C=CCOc1cccc(C2Oc3cccc(OC)c3-c3ccc4c(c32)C(C)=CC(C)(C)N4)c1 (stereo not drawn) [Example 86, 2,5-Dihydro-10-methoxy-2,2,4-trimethyl-5-[3-(2-propenyloxy)phenyl]-1H-[1]benzopyrano[3,4-f]quionline] | ≥ 10000 | 2.1 | – | – |
| C=CCC1Oc2cccc(C=C)c2-c2ccc3c(c21)C(C)=CC(C)(C)N3 (stereo not drawn) [Example 5, 10-Ethenyl-2,5-dihydro-2,2,4-trimethyl-5-(2-propenyl)-1H-[1]benzopyrano[3,4-f]quinoline] | ≥ 10000 | 357 | – | – |
| COc1cccc2c1-c1ccc3c(c1C(C(C)C)O2)C(C)=CC(C)(C)N3 (stereo not drawn) [Example 58, 2,5-Dihydro-10-methoxy-2,2,4-trimethyl-5-(1-methylethyl)-1H-[1]benzopyrano[3,4-f]quinoline] | 8570 | 9 | – | – |
| C=C=C(C)C1Oc2cccc(OC)c2-c2ccc3c(c21)C(C)=CC(C)(C)N3 (stereo not drawn) [Example 210, 2,5-Dihydro-10-methoxy-5-(-methylpropa-1,2-dienyl)-2,2,4-trimethyl-1H-[1]benzopyrano[3,4-f]quinoline] | – | – | 710 | 21 |
